Source: patent publication US12421252B2, “Spiro (isobenzofuranazetidine) compounds for the treatment of autoimmune disease” (Hoffmann-La Roche Inc., priority 2020, dated 2025)

Legend:
[1] = target: T1, hTLR9 (Homo sapiens, UniProt Q9NR96); set-up: host or cells: HEK; conditions: data disclosed in US20150105370; read-out: HEK/hTLR9 IC50; cited from earlier work
T1 sequence (Q9NR96 26-1032): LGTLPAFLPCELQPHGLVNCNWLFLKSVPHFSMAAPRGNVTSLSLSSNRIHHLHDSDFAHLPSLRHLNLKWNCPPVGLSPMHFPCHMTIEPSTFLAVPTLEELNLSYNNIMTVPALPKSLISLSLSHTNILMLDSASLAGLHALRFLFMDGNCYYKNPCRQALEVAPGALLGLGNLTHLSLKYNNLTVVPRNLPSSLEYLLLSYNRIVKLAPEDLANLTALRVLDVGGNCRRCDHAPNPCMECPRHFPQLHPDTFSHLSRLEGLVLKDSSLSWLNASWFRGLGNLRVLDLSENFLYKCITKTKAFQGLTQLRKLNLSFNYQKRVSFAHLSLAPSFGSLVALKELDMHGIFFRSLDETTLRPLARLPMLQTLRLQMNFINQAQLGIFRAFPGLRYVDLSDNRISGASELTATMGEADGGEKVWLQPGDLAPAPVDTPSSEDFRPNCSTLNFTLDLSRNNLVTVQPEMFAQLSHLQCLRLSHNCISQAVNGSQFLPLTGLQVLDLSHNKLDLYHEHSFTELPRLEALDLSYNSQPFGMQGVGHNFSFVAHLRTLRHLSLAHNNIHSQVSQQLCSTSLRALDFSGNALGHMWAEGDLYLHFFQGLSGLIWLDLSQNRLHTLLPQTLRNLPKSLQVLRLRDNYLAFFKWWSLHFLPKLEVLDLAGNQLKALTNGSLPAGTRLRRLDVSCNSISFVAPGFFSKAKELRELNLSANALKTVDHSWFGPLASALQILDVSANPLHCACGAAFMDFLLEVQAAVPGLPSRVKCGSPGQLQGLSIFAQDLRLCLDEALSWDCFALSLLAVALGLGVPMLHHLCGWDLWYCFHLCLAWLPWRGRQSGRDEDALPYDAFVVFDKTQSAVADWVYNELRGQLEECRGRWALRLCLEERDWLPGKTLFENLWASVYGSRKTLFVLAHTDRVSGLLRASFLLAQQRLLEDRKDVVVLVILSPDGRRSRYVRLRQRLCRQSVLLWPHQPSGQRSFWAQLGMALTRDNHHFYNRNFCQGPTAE

[2] = target: T2, hERG channel (Homo sapiens, UniProt Q12809); experiment: hERG channel inhibition assay (patch-clamp, CHO hERG cells); type: cell-based; conditions: for safety window (hERG IC20/TLR7/8/9 IC50, in words): compared to the compounds of this invention; for hERG IC20/TLR7 IC50 / hERG IC20/TLR9 IC50: safety ratio
T2 construct: expressed in transfected cells
Experimental: hERG Channel Inhibition Assay:
The hERG K+ channels were cloned in humans and stably expressed in a CHO (Chinese hamster ovary) cell line. CHOhERG cells were used for patch-clamp (voltage-clamp, whole-cell) experiments. Cells were stimulated by a voltage pattern to activate hERG channels and conduct IKhERG Currents (rapid delayed outward rectifier potassium current of the hERG channel). After the cells were stabilized for a few minutes, the amplitude and kinetics of IKhERG were recorded at a stimulation frequency of 0.1 Hz, (6 bpm). Thereafter, the test compound was added to the preparation at increasing concentrations. For each concentration, an attempt was made to reach a steady-state effect, usually, this was achieved within 3-10 min at which time the next highest concentration was applied. The amplitude and kinetics of IKhERG are recorded in each concentration of the drug which were compared to the control values (taken as 100%). (references: Redfern W S, Carlsson L, Davis A S, Lynch W G, MacKenzie I, Palethorpe S, Siegl P K, Strang I, Sullivan A T, Wallis R, Camm A J, Hammond T G. 2003; Relationships between preclinical cardiac electrophysiology, clinical QT interval prolongation and torsade de pointes for a broad range of drugs: evidence for a provisional safety margin in drug development. Cardiovasc. Res. 58:32-45, Sanguinetti M C, Tristani-Firouzi M. 2006; hERG potassium channels and cardiac arrhythmia. Nature 440:463-469, Webster R, Leishman D, Walker D. 2002; Towards a drug concentration effect relationship for QT prolongation and torsades de pointes. Curr. Opin. Drug Discov. Devel. 5:116-26).

[3] = target: T3, CYP3A4 (Homo sapiens, UniProt P08684); experiment: CYP inhibition assay in human liver microsome, CYP3A4; type: in vitro ADME; conditions: percentage inhibition, substrate Midazolam 5 μM, <0: not or weak inhibitor
T3 construct: tissue BD-Gentest 452117; host or cells: human liver microsomes
Experimental: (§1) This is a high throughput screening assay used for assessment of reversible inhibition of CYP2C9, CYP2D6, and CYP3A4 activity of test compounds in human liver microsome (HLM) in early discovery stage.
(§2) Procedure 10 mM DMSO stock solutions of test compounds were diluted in DMSO to generate 2 mM intermediate stock solution. 250 nL of intermediate stock solution were transferred in duplicate into 3 separate 384 well microtitre plates (assay-ready plates). A mixture of HLM and each substrate was made up. 45 μL of HLM substrate mix was then transferred to each well of an assay ready plate and mixed. The negative (solvent) and positive controls (standard inhibitor for each CYP) were included in each assay ready plate. The assay ready plate was warmed to 37° C. in an incubator over 10 minutes. 5 μL pre-warmed NADPH regenerating system was added to each incubation well to start the reaction. Final incubation volume was 50 μL. The assay plate then was placed back in the 37° C. incubator. After incubation (10 minutes for CYP2D6) for 5 minutes, incubates were quenched by addition of 50 μL 100% acetonitrile containing internal standards (400 ng/mL 13C6-4′-OH-Diclofenac, 20 ng/mL D3-Dextrorphan and 20 ng/mL D4-1′OH-Midazolam). The supernatants were collected for RapidFire/MS/MS analysis.
(§3) RapidFire online solid phase extraction/sample injection system (Agilent) coupled with API4000 triple quadrupole mass spectrometer (AB Sciex) were used for sample analysis. The mobile phase composed of acetonitrile and water supplemented with 0.1% formic acid. A C4 solid phase extraction cartridge is used for sample separation. MS detection is achieved in positive ion MRM mode.
(§4) Data analysis Peak areas for substrate, metabolite and internal standard are determined using the RapidFire integrator software (version 3.6.12009.12296). Peak area ratios (PAR) of metabolite and internal standard (stable-labelled metabolite) are then calculated. The measurement window for each experiment is then defined: PAR (0% activity)=average PAR for all incubations containing concentrated inhibitor; Par (100% activity)=average PAR for all incubations containing no inhibitor (DMSO controls); % Activity (test inhibitor)=[PAR (test inhibitor)-PAR (0% activity)]/[PAR (100% activity)-PAR (0% activity)]; % Inhibition (test inhibitor)=100-% Activity (test inhibitor).

[4] = target: T4, CYP2C9 (Homo sapiens, UniProt P11712); experiment: CYP inhibition assay in human liver microsome, CYP2C9; type: in vitro ADME; conditions: percentage inhibition, substrate Diclofenac 5 μM, <0: not or weak inhibitor
T4 construct: tissue BD-Gentest 452117; host or cells: human liver microsomes
Experimental: as §1, §2, §3, §4

[5] = target: T5, CYP2D6 (Homo sapiens, UniProt P10635); experiment: CYP inhibition assay in human liver microsome, CYP2D6; type: in vitro ADME; conditions: percentage inhibition, substrate Dextromethorphan 5 μM, <0: not or weak inhibitor
T5 construct: tissue BD-Gentest 452117; host or cells: human liver microsomes
Experimental: as §1, §2, §3, §4

T2 sequence (Q12809 whole entry): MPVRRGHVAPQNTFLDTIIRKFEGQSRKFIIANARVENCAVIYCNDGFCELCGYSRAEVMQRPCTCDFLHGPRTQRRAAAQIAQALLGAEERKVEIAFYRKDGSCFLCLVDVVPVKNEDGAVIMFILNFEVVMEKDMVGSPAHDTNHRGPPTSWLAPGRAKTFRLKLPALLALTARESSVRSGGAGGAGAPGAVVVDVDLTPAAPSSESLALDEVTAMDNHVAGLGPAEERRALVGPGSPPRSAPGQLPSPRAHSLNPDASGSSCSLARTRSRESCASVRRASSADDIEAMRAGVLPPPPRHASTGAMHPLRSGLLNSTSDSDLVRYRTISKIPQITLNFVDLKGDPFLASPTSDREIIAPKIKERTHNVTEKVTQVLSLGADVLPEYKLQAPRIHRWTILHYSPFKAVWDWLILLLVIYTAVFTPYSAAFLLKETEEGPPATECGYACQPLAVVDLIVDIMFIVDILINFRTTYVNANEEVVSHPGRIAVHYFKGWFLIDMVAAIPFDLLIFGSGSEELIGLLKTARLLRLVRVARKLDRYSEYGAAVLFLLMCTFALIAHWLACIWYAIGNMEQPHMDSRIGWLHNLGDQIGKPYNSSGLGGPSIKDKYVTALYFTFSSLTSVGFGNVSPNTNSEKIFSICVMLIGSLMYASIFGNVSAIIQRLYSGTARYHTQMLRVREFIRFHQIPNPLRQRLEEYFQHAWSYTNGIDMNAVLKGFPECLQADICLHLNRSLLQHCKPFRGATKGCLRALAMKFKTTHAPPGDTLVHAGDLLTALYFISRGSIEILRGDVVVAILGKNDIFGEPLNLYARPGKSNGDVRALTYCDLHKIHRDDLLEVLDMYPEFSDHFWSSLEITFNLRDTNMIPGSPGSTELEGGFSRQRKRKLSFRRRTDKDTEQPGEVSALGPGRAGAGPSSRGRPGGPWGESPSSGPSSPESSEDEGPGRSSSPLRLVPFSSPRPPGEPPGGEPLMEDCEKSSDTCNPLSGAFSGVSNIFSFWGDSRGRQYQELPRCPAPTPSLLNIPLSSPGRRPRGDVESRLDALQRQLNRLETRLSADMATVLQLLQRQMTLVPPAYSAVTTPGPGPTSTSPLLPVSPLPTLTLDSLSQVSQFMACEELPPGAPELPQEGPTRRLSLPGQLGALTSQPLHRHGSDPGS
T4 sequence (P11712 whole entry): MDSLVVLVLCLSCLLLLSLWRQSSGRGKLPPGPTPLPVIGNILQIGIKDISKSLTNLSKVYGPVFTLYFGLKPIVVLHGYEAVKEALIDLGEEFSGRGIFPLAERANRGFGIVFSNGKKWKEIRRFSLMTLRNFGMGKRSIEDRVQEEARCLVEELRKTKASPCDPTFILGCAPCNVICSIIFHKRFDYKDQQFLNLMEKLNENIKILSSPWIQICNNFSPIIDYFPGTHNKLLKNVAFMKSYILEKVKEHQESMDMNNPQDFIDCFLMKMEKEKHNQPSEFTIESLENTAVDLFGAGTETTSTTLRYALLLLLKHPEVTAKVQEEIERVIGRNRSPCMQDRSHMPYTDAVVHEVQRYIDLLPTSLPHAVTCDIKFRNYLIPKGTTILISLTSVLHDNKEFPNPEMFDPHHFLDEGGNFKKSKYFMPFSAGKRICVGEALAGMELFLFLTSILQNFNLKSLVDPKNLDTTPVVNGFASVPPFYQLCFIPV
T5 sequence (P10635 whole entry): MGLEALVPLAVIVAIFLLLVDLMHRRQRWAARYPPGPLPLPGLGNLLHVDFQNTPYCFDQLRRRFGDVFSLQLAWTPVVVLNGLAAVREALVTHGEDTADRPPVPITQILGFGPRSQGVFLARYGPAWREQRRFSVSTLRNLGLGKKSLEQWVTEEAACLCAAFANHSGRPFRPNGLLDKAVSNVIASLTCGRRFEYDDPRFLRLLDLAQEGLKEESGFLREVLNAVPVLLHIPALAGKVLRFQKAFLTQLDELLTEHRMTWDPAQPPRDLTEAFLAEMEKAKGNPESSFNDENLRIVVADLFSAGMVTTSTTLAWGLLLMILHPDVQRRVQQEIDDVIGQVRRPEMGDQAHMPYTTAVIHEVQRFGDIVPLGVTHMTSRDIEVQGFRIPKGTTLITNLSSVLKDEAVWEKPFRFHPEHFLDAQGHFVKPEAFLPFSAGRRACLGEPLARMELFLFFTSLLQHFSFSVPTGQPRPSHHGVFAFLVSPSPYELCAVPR
T3 sequence (P08684 whole entry): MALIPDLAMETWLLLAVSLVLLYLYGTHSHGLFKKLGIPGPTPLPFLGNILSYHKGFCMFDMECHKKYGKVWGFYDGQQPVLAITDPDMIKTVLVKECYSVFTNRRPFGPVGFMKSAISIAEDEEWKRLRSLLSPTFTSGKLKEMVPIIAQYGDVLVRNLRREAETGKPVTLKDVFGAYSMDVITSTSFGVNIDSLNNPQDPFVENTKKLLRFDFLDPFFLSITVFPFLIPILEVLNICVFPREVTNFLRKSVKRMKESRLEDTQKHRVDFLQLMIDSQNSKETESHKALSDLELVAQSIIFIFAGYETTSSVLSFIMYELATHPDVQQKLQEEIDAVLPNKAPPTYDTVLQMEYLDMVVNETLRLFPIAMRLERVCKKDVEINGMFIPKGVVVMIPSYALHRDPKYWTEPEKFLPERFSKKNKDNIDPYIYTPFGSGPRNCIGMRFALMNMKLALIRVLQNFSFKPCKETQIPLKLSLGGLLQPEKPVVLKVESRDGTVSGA

Row | Compound | IC50 [1] [µM] | safety window (hERG IC20/TLR7/8/9 IC50, in words) [2] | hERG IC20/TLR7 IC50 [2] | hERG IC20/TLR9 IC50 [2] | CYP (%) 3A4 [3] [%] | CYP (%) 2C9 [4] [%] | CYP (%) 2D6 [5] [%]
1 | C[C@@H]1CN(c2ccc(C#N)c3ncccc23)C[C@H](CN2CCN(c3ccccc3)CC2)O1 [ER-887258, reference compound] | > 2 | much narrower safety window | 8.1 | 0.3 |  |  | 
2 | C[C@@H]1CN(c2ccc(C#N)c3ncccc23)C[C@H](CN2CCN(c3ccccn3)CC2)O1 [ER-888285, reference compound] | > 2 | much narrower safety window | 8.4 | 0.5 |  |  | 
3 | C[C@@H]1CN(c2ccc(C#N)c3ncccc23)C[C@H](CN2CCN(c3ccncc3)CC2)O1 [ER-888286, reference compound] | > 2 | much narrower safety window | 0.3 | 0.2 | 5.5 | 29.5 | 52.5
